Drawing on US10259808B2 (Genentech, Inc., priority 2015, dated 2019), this text covers IC50 for 26 compounds.

The experiment has as its target T1, RORc ligand binding domain (Homo sapiens, UniProt P51449).
T1 sequence (P51449 269-508 limits assumed): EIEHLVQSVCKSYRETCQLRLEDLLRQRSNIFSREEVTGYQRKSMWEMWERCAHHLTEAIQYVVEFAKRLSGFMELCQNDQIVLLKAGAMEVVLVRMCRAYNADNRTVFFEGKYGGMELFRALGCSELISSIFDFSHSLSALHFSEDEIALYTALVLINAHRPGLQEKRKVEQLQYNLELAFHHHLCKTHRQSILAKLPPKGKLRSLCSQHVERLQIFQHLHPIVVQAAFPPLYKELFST
The experiment can be described thus: In vitro RORc ligand binding assay (25-[3H]hydroxycholesterol displacement).
Procedure: This assay was used to determine a compound's potency in inhibiting activity of RORc by determining, Kiapp, IC50, or percent inhibition values.
On day of the assay, 100 uL of 0.05% CHAPS (in deionized H2O) was added to all wells of the GFB Unifilter plate and allowed soak for 1 h. A wash buffer of 50 mM HEPES (pH 7.4), 150 mM NaCl, and 5 mM MgCl2 was prepared to wash the filter plate. To prepare an assay buffer, BSA was added to the wash buffer to reach 0.01% and DTT was added to reach 1 mM.
The 20× compound stocks were diluted in DMSO with Assay Buffer 4-fold to reach 5× the final test concentration in 25% DMSO (10 uL compound+30 uL Assay Buffer). Solutions were mixed by aspiration several times with a pipette set on 50 uL volume.
For two point screening, 10 mM stock compound solutions were diluted in DMSO to obtain 200 uM (20× the high test concentration) and then diluted 10-fold further to reach 20 uM (20× the low test concentration). The 20× stocks were diluted 4-fold with Assay Buffer (10 uL compound+30 uL Assay Buffer) to reach 5× the test concentrations (50 uM and 5 uM) and 10 uL were added to two assay plates for the duplicate wells. With each concentration tested on 2 plates, each set of 80 compounds used 4 assay plates (1 uM and 10 uM, with n=2).
Nonspecific Binding (NSB) Samples, Total Binding (TB) Samples and No Receptor (No R) Samples
For 25-hydroxycholesterol in 25% DMSO/75% Assay Buffer; 10 uL per well was used for NSB samples. Wells for Total Binding and No Receptor sample determination contained 10 uL of 25% DMSO/75% Assay Buffer per well.
Radioligand 25-[^3H]Hydroxycholesterol) Preparation
Add 20 uL to all wells to reach 6 nM final in the assay.
Stock receptor solution was diluted in assay buffer to obtain 1.5 ug/mL in Assay Buffer. 20 uL was added to all wells. For No R samples, 20 uL Assay Buffer was substituted for receptor solution.
Sample addition to Plates and Incubation
Assay plates were 96-well polypropylene V-bottom plates. […] 10 uL of 25% DMSO/75% Assay Buffer was added to Total Binding or No Receptor wells. 10 uL of 5 uM 25-hydroxycholesterol in 25% DMSO/75% Assay Buffer was added to NSB wells. […] 20 uL of 1.5 ug/mL RORc receptor was added to wells (or 40 uL Assay Buffer to No R wells). Following addition to the wells, the plates were incubated 3 h at 25° C.
Using a Packard Filtermate Harvester, the filter plate were washed 4 times following transfer of the incubated samples. Plates were dry-filtered completely (2 h at 50° C. or overnight at room temperature). 50 uL Microscint 0 was added to all wells and read on Topcount protocol Inverted.
Final concentrations were as follows: 50 mM HEPES buffer (pH 7.4); 150 mM NaCl; 1 mM DTT; 5 mM MgCl2; 0.01% BSA; 5% DMSO; 0.6 ug/mL RORc receptor; 6 nM 25-[^3H]hydroxycholesterol. For NSB wells, 1 uM 25-hydroxycholesterol was also present.
For the compound `Cc1nnc(C2(c3cc(F)c(CN4[C@@H](C)CC[C@H](c5ccccc5)S4(=O)=O)cc3F)CCOCC2)[nH]1` [Example 48, (3S,6R)-2-[[2,5-difluoro-4-[4-(5-methyl-4H-1,2,4-triazol-3-yl)tetrahydropyran-4-yl]phenyl]methyl]-3-methyl-6-phenyl-thiazinane 1,1-dioxide], the 50% inhibitory concentration (IC50) (in general, the concentration that gives 50% inhibition) is 21.6 nM.
Consider `Cc1nnc(C2(c3cc(F)c(CN4[C@@H](C)CC[C@H](c5ccccc5)S4(=O)=O)cc3F)CC2)[nH]1` [Example 49, (3S,6R)-2-[[2,5-difluoro-4-[1-(5-methyl-4H-1,2,4-triazol-3-yl)cyclopropyl]phenyl]methyl]-3-methyl-6-phenyl-thiazinane 1,1-dioxide], for which the IC50 turned out to be 40.4 nM.
`C[C@H]1CC[C@H](c2ccccc2)S(=O)(=O)N1Cc1cc(F)c(C2(c3nnc[nH]3)CCOCC2)cc1F` [Example 50, (3S,6R)-2-[[2,5-difluoro-4-[4-(4H-1,2,4-triazol-3-yl)tetrahydropyran-4-yl]phenyl]methyl]-3-methyl-6-phenyl-thiazinane 1,1-dioxide] yielded a half-inhibitory concentration (IC50) of 28.6 nM.
The figure for `CCOC(=O)Cn1cnc(C2(c3cc(F)c(CN4[C@@H](C)CC[C@H](c5ccccc5)S4(=O)=O)cc3F)CCOCC2)n1` [Example 52, ethyl 2-[3-[4-[2,5-difluoro-4-[[(3S,6R)-3-methyl-1,1-dioxo-6-phenyl-thiazinan-2-yl]methyl]phenyl]tetrahydropyran-4-yl]-1,2,4-triazol-1-yl]acetate] is 71 nM; for `C[C@H]1CC[C@H](c2ccccc2)S(=O)(=O)N1Cc1cc(F)c(C2(c3ncn(CC(N)=O)n3)CCOCC2)cc1F` [Example 53, 2-[3-[4-[2,5-difluoro-4-[[(3S,6R)-3-methyl-1,1-dioxo-6-phenyl-thiazinan-2-yl]methyl]phenyl]tetrahydropyran-4-yl]-1,2,4-triazol-1-yl]acetamide] it is 103 nM.
For the compound `C[C@H]1CC[C@H](c2ccccc2)S(=O)(=O)N1Cc1cc(F)c(C2(c3ncn(CCO)n3)CCOCC2)cc1F` [Example 54, 2-[3-[4-[2,5-difluoro-4-[[(3S,6R)-3-methyl-1,1-dioxo-6-phenyl-thiazinan-2-yl]methyl]phenyl]tetrahydropyran-4-yl]-1,2,4-triazol-1-yl]ethanol], the IC50 turned out to be 57 nM.
The figure for `C[C@H]1CC[C@H](c2ccccc2)S(=O)(=O)N1Cc1ccc(C2(NCc3ncnn3C)CCOCC2)cc1F` [Example 55, 4-[3-fluoro-4-[[(3S,6R)-3-methyl-1,1-dioxo-6-phenyl-thiazinan-2-yl]methyl]phenyl]-N-[(2-methyl-1,2,4-triazol-3-yl)methyl]tetrahydropyran-4-amine] is 10.7 nM; for `C[C@H]1CC[C@H](c2ccccc2)S(=O)(=O)N1Cc1ccc(C2(OCc3nnc[nH]3)CCOCC2)cc1F` [Example 56, (3S,6R)-2-[[2-fluoro-4-[4-(4H-1,2,4-triazol-3-ylmethoxy)tetrahydropyran-4-yl]phenyl]methyl]-3-methyl-6-phenyl-thiazinane 1,1-dioxide] it is 7.2 nM; for `C[C@H]1CC[C@H](c2ccccc2)S(=O)(=O)N1Cc1cc(F)c(C2(c3nnc(CO)o3)CCOCC2)cc1F` [Example 57, [5-[4-[2,5-difluoro-4-[[(3S,6R)-3-methyl-1,1-dioxo-6-phenyl-thiazinan-2-yl]methyl]phenyl]tetrahydropyran-4-yl]-1,3,4-oxadiazol-2-yl]methanol] it is 28.2 nM.
For `C[C@H]1CC[C@H](c2ccccc2)S(=O)(=O)N1Cc1cc(F)c(C2(c3n[nH]c(=O)o3)CCOCC2)cc1F` [Example 58, 5-[4-[2,5-difluoro-4-[[(3S,6R)-3-methyl-1,1-dioxo-6-phenyl-thiazinan-2-yl]methyl]phenyl]tetrahydropyran-4-yl]-3H-1,3,4-oxadiazol-2-one], the IC50 was found to be 6.6 nM.
The figure for `C[C@H]1CC[C@H](c2ccccc2)S(=O)(=O)N1Cc1ccc(C2(OCc3nnc[nH]3)COC2)cc1F` [Example 59, (3S,6R)-2-[[2-fluoro-4-[3-(4H-1,2,4-triazol-3-ylmethoxy)oxetan-3-yl]phenyl]methyl]-3-methyl-6-phenyl-thiazinane 1,1-dioxide] is 23.2 nM; for `CCOC(=O)c1nnc(C2(c3cc(F)c(CN4[C@@H](C)CC[C@H](c5ccccc5)S4(=O)=O)cc3F)CCOCC2)o1` [Example 60, ethyl 5-[4-[2,5-difluoro-4-[[(3S,6R)-3-methyl-1,1-dioxo-6-phenyl-thiazinan-2-yl]methyl]phenyl]tetrahydropyran-4-yl]-1,3,4-oxadiazole-2-carboxylate] it is 4.2 nM; for `C[C@H]1CC[C@H](c2ccccc2)S(=O)(=O)N1Cc1cc(F)c(C2(c3nnc(N)o3)CCOCC2)cc1F` [Example 61, 5-[4-[2,5-difluoro-4-[[(3S,6R)-3-methyl-1,1-dioxo-6-phenyl-thiazinan-2-yl]methyl]phenyl]tetrahydropyran-4-yl]-1,3,4-oxadiazol-2-amine] it is 19.2 nM.
Take `C[C@H]1CC[C@H](c2ccccc2)S(=O)(=O)N1Cc1ccc(C2(NCc3cnc[nH]3)CCOCC2)cc1F` [Example 62, 4-[3-fluoro-4-[[(3S,6R)-3-methyl-1,1-dioxo-6-phenyl-thiazinan-2-yl]methyl]phenyl]-N-(1H-imidazol-5-ylmethyl)tetrahydropyran-4-amine]: the half-maximal inhibitory concentration (IC50) worked out at 20.5 nM.
For `C[C@H]1CC[C@H](c2ccccc2)S(=O)(=O)N1Cc1ccc(C2(NCc3cc[nH]n3)CCOCC2)cc1F` [Example 63, 4-[3-fluoro-4-[[(3S,6R)-3-methyl-1,1-dioxo-6-phenyl-thiazinan-2-yl]methyl]phenyl]-N-(1H-pyrazol-3-ylmethyl)tetrahydropyran-4-amine] the value was 6.7 nM.
Compound `C[C@H]1CC[C@H](c2ccccc2)S(=O)(=O)N1Cc1ccc(C2(NCc3ncc[nH]3)CCOCC2)cc1F` [Example 64, 4-[3-fluoro-4-[[(3S,6R)-3-methyl-1,1-dioxo-6-phenyl-thiazinan-2-yl]methyl]phenyl]-N-(1H-imidazol-2-ylmethyl)tetrahydropyran-4-amine] displayed an IC50 of 10.1 nM.
The figure for `C[C@H]1CC[C@H](c2ccccc2)S(=O)(=O)N1Cc1ccc(C2(NCc3cocn3)CCOCC2)cc1F` [Example 65, 4-[3-fluoro-4-[[(3S,6R)-3-methyl-1,1-dioxo-6-phenyl-thiazinan-2-yl]methyl]phenyl]-N-(oxazol-4-ylmethyl)tetrahydropyran-4-amine] is 3.6 nM.
On to `C[C@H]1CC[C@H](c2ccccc2)S(=O)(=O)N1Cc1ccc(C2(NCc3cnccn3)CCOCC2)cc1F` [Example 66, 4-[3-fluoro-4-[[(3S,6R)-3-methyl-1,1-dioxo-6-phenyl-thiazinan-2-yl]methyl]phenyl]-N-(pyrazin-2-ylmethyl)tetrahydropyran-4-amine], for which the IC50 stood at 6.6 nM.
In the case of `C[C@H]1CC[C@H](c2ccccc2)S(=O)(=O)N1Cc1ccc(C2(NCc3ncccn3)CCOCC2)cc1F` [Example 67, 4-[3-fluoro-4-[[(3S,6R)-3-methyl-1,1-dioxo-6-phenyl-thiazinan-2-yl]methyl]phenyl]-N-(pyrimidin-2-ylmethyl)tetrahydropyran-4-amine], the IC50 was determined as 9.3 nM.
With `C[C@H]1CC[C@H](c2ccccc2)S(=O)(=O)N1Cc1ccc(C2(NCc3ccc(=O)[nH]c3)CCOCC2)cc1F` [Example 68, 5-[[[4-[3-fluoro-4-[[(3S,6R)-3-methyl-1,1-dioxo-6-phenyl-thiazinan-2-yl]methyl]phenyl]tetrahydropyran-4-yl]amino]methyl]-1H-pyridin-2-one], the IC50 was found to be 38.9 nM.
For `C[C@H]1CC[C@H](c2ccccc2)S(=O)(=O)N1Cc1ccc(C2(N3C=NC(=O)/C3=C\O)CCOCC2)cc1F` [Example 69, (5E)-1-[4-[3-fluoro-4-[[(3S,6R)-3-methyl-1,1-dioxo-6-phenyl-thiazinan-2-yl]methyl]phenyl]tetrahydropyran-4-yl]-5-(hydroxymethylene)imidazol-4-one], the IC50 amounted to 83.3 nM.
For `C[C@H]1CC[C@H](c2ccccc2)S(=O)(=O)N1Cc1ccc(C2(n3cn[nH]c3=O)CCOCC2)cc1F` [Example 70, 4-[4-[3-fluoro-4-[[(3S,6R)-3-methyl-1,1-dioxo-6-phenyl-thiazinan-2-yl]methyl]phenyl]tetrahydropyran-4-yl]-1H-1,2,4-triazol-5-one] the value was 113 nM; for `C[C@H]1CC[C@H](c2ccccc2)S(=O)(=O)N1Cc1ccc(C2(NCc3ncco3)CCOCC2)cc1F` [Example 71, 4-[3-fluoro-4-[[(3S,6R)-3-methyl-1,1-dioxo-6-phenyl-thiazinan-2-yl]methyl]phenyl]-N-(oxazol-2-ylmethyl)tetrahydropyran-4-amine], 2.5 nM.
For `C[C@H]1CC[C@H](c2ccccc2)S(=O)(=O)N1Cc1ccc(C2(NCc3cc[nH]c(=O)c3)CCOCC2)cc1F` [Example 72, 4-[[[4-[3-fluoro-4-[[(3S,6R)-3-methyl-1,1-dioxo-6-phenyl-thiazinan-2-yl]methyl]phenyl]tetrahydropyran-4-yl]amino]methyl]-1H-pyridin-2-one] the value was 10.6 nM; for `C[C@H]1CC[C@H](c2ccccc2)S(=O)(=O)N1Cc1cc(F)c(C2(NCc3ccn[nH]3)CCOCC2)cc1F` [Example 73, 4-[2,5-difluoro-4-[[(3S,6R)-3-methyl-1,1-dioxo-6-phenyl-thiazinan-2-yl]methyl]phenyl]-N-(1H-pyrazol-5-ylmethyl)tetrahydropyran-4-amine], 2.9 nM.
The figure for `C[C@H]1CC[C@H](c2ccccc2)S(=O)(=O)N1Cc1cc(F)c(C2(c3nc(CO)co3)CCOCC2)cc1F` [Example 74, [2-[4-[2,5-difluoro-4-[[(3S,6R)-3-methyl-1,1-dioxo-6-phenyl-thiazinan-2-yl]methyl]phenyl]tetrahydropyran-4-yl]oxazol-4-yl]methanol] is 12.8 nM.
